One series has as its system MCF-7/ADR xenografts. Description: Mammary adenocarcinoma xenografts in nude mice, prohibitin siRNA plus chemotherapy. It is filed as in vivo. On the procedure:
(§1) In further studies, the efficacy of a prohibitin-targeted therapeutic in treating mammary adenocarcinoma cells (MCF-7/AR) is assessed. Briefly, male […] nude mice 5 to 7 weeks old, weighing 18 g to 22 g, are used for the MCF-7/ADR xenografts. Mice receive a subcutaneous (s.c.) injection of the cells using 5×10^5 cells/inoculation under the shoulder. […] The animal's weight is measured every 4 days. Tumor growth starting on the first day of treatment is measured and the volume of the xenograft is monitored every 4 days. The mice are anaesthetized and sacrificed when the mean tumor weight is over 1 g in the control group. Tumor tissue is excised from the mice and its weight is measured. Tumor weights from mice treated with the prohibitin siRNA and chemotherapeutic drugs are compared to tumor weights from mice treated with control siRNA and chemotherapeutic drugs. Cell counts are compared. All experiments are performed in triplicate.
as §1, with “treating a” for “treating”, “(MCF-7)” for “(MCF-7/AR)”, “an s.c.” for “a subcutaneous (s.c.)”, “drugs.” for “drugs. Cell counts are compared. All experiments are performed in triplicate.”
In further studies, the efficacy of a prohibitin-targeted therapeutic in treating a mammary adenocarcinoma cells (MCF-7) is assessed. Briefly, male […] nude mice 5 to 7 weeks old, weighing 18 g to 22 g, are used for the MCF-7/ADR xenografts. Mice receive an s.c. injection of the cells using […] cells/inoculation under the shoulder.
Liposome formulations are produced as described previously (Shi et al. (2000) Proc. Natl. Acad. Sci. USA. 97(13): 7567-7572). Briefly, POPC ([…]), DDAB (0.2 μmol), DSPE-PEG 2000 (0.6 μmol), and DSPE-PEG 2000-maleimide (30 nmol) are dissolved in chloroform/methanol (2:1, vol:vol) […] a brief period of evaporation. The lipids are dispersed in 1 ml 0.05 M Tris-HCl buffer, pH 8.0, and are sonicated for 10 min. Prohibitin siRNA is added to the lipids. The liposome/siRNA dispersion is evaporated to a final concentration of 200 mM at a volume of 100 μl. The dispersion is frozen in ethanol/dry ice for 4 to 5 min. The dispersion is then thawed at 40° C. for 1 min. to 2 min., and this freeze-thaw cycle is repeated 10 times. The liposome dispersion is diluted to a lipid concentration of 40 mM, is followed by extrusion 10 times each through two stacks each of 400 nm, 200 nm, 100 nm, and 50 nm pore size polycarbonate membranes, by using a hand held extruder (Avestin, Ottawa). The mean vesicle diameters are determined by quasielastic light scattering using a Microtrac Ultrafine Particle Analyzer (Leeds-Northrup, St. Petersburg, Fla.).
The animal's weight is measured every 4 days. Tumor growth starting on the first day of treatment is measured and the volume of the xenograft is monitored every 4 days. The mice are anaesthetized and sacrificed when the mean tumor weight is over 1 g in the control group. Tumor tissue is excised from the mice and its weight is measured. Tumor weights from mice treated with the prohibitin siRNA and chemotherapeutic drugs are compared to tumor weights from mice treated with control siRNA and chemotherapeutic drugs.
In further studies, the efficacy of a prohibitin-targeted therapeutic in treating a mammary adenocarcinoma cells (MCF-7) is assessed. […]

A further series deals with prohibitin. In words: Prohibitin silencing by siRNA in SKOV3 cells, anti-prohibitin immunoblot. It is filed as cell-based, human. The note with it: for decrease in prohibitin: FIG. 7. The text has this: To establish the importance of prohibitin to the expression of the drug-resistant phenotype in MDA cell lines, prohibitin expression was silenced using RNAi. Briefly, the following siRNA duplexes targeting the human prohibitin mRNA were designed and purchased either from Ambion (Austin, Tex.) or Invitrogen (Carlsbad, Calif.). The siRNA duplex sequences corresponding to nucleotides 425 through 443 (GenBank SEQ ID NUMBER: U49725.1) targeting the start of the prohibitin mRNA transcript were:
For a typical siRNA transfection, 1 nmole of the annealed siRNA duplex was mixed with 1.4 ml of Opti-MEM reagent (Invitrogen). In another tube, […] of Oligofectamine reagent (Invitrogen, Carlsbad, Calif.) was mixed with […] of Opti-MEM. The two solutions were combined and mixed gently by inversion and incubated for 20 min. at RT. The resulting solution was added to the cultured cells drop by drop in a 10 cm dish (cells are approximately 40-50% confluent). The next day the transfected cells were trypsinized and seeded in 6 or 96-well plates and further incubated for the indicated amount of time (assay dependent) before further analysis.
Targeted silencing of prohibitin was performed as described in Example 2 above.
(In general: Immunoblotting shows a protein as a band on a membrane.)

Setting [1] is: Example 10, siRNA/liposome formulation.
Setting [2] is: Example 11, siRNA/immunoliposome formulation.

The source of these data is patent US20070122830A1, “Prohibitin-directed diagnostics and therapeutics for cancer and chemotherapeutic drug resistance” (Aurelium BioPharma Inc., priority 2005, published 2007).

In the case of “prohibitin siRNA: siRNA duplex to human prohibitin mRNA nt 425-443; sense 5′-GGAAGUGGUCUGUCUGUUAtt-3′, antisense 5′-UAACAGACAGACCACUUCCtt-3′ (sense GGAAGUGGUCUGUCUGUUATT; antisense UAACAGACAGACCACUUCCTT; chemistry not given here)”, in the series on MCF-7/ADR xenografts (Example 8, MCF-7/AR cells), the “total cell numbers of tumors vs control siRNA” value is “lower”. The “tumor weight vs control siRNA” value in the series on MCF-7/ADR xenografts (Example 8, MCF-7/AR cells) is reported as “smaller tumors by weight”; with MCF-7/ADR xenografts (Example 9, MCF-7) it was “smaller tumors by weight”; in the series on MCF-7/ADR xenografts (setting [1]), “smaller tumors by weight”; in the series on MCF-7/ADR xenografts (setting [2]), “smaller tumors by weight”. Further, the “total cell number in tumors vs control siRNA” value is listed as “lower” in the series with MCF-7/ADR xenografts (Example 9, MCF-7); “lower” with MCF-7/ADR xenografts (setting [1]); “lower” in the series on MCF-7/ADR xenografts (setting [2]). Moreover, in the series on prohibitin (FIG. 8), the “repeat of prohibitin silencing” value is listed as “confirmed, albeit with increased prohibitin expression”. Further, the figures for the decrease in prohibitin in the series on prohibitin (six days after treatment) and with prohibitin (three days after treatment) were 71% and approximately 93%, respectively.
